Experimental data from patent US9718794B2, “Crystalline forms of tyrosine kinase inhibitors and their salts” (Purdue Pharma L.P., priority 2013, dated 2017).

Legend:
[1] = Rat pharmacokinetics (IV and PO, plasma); type: in vivo; conditions: male, CD IGS, PO 100 mg/kg, mean
Protocol: Rat Pharmacokinetics. Compound I was dosed to nonfasted male CD IGS rats (weighting 180-250 g, Charles River Laboratories) by single intravenous (IV, n=3/group) or oral gavage (PO, n=4/group, including control rat group for drug-free blood and brain collection) administration at a nominal dose levels of 3 mg/kg (IV) or 5 mg/kg (IV) and 10, 50, 100 mg/kg (PO) respectively. Compound was formulated in either DMSO/Solutol® HS 15/phosphate buffered saline, pH 7.4 (PBS) for both IV and PO dosing, or 10% (w/v) Povidone K12 in water for IV dosing or 10% (w/v) Povidone K25 in water for PO dosing, or 18% (w/v) CrosPovidone in water for PO dosing. An intravenous profile was obtained by taking serial or terminal blood samples at 3, 10, 30, 60, 120, 240, 360, 1440 min post dose. An oral profile was obtained by taking serial or terminal blood samples at 10, 30, 60, 120, 240, 360, 480, 1440 min post dose.
Plasma Sample Collection from Rats. Animals were sedated under general inhalant anesthesia (3% isoflurane) for blood collection by cardiac puncture. […]
Plasma and brain samples were subjected to quantitative analysis by LC-MS/MS using compound-specific mass transitions. […] The concentrations of the test compound in brain (ng/g brain tissue) and in plasma (ng/mL) as well as the ratio of the brain concentration and the plasma concentration at each time point were determined and reported.

[2] = system: CFA-induced inflammatory pain; test: Rat CFA-induced inflammatory pain model; type: in vivo; conditions: 50 μL of 1 mM s.c. into the paw 3 hours after CFA
Protocol: Rat CFA-induced Inflammatory Pain Model. Hyperalgesia was induced by subcutaneously injecting 50 μL of CFA (Sigma-Aldrich, St. Louis, Mo., USA) into the plantar surface of the left hind paw of the rats using a 30-gauge hypodermic needle under sevoflurane anesthesia. The classical signs of inflammation, including edema and redness, for up the last day of tests were recorded. To assess the effect of test article on CFA-induced inflammatory pain, the rats were anesthetized with sevoflurane 3 hours after CFA injection and then injected 50 μL of either 1 mM test article (n=6) or Saline (n=4) subcutaneously (S.C.) into the same site as the CFA injection, using a 30-gauge hypodermic needle under sevoflurane anesthesia, according to published method (Ueda K., et al, J Pharmacol. Sci., 2010; 112(4):438-43). Paw withdrawal latencies (thermal hyperalgesia) are measured before and at […] 2, 4, and 7 days after CFA injection. Mechanical thresholds were also measured in the same way with either Formula 1 compound (n=6) or Saline (n=4) at similar different time points (for example, 1, 3 hour and 3 days). The noxious heat and mechanical thresholds were separately measured in each group of rats. The threshold was measured 3-5 times in each rat and then averaged.

[3] = system: CCI neuropathic pain (mechanical allodynia); test: Chronic constriction injury (CCI) model of neuropathic pain in rat; type: in vivo; conditions: for observed side effects in dosed CCI-rats: single oral dose
Excerpt: Chronic Constriction Injury (CCI) Model of Neuropathic Pain in Rat. The CCI model is one of the most commonly used mono-neuropathic pain model firstly described in details by Bennett and Xie (Bennett CJ, Xie YK. Pain. 1988;33(1):87-107). It mimics important clinical chronic pain symptoms such as mechanical allodynia and thermal hyperalgesia, Chronic constriction injury of the sciatic nerve was produced by tying four loose ligatures around the left sciatic nerve according to the method of Bennett and. Xie. […] Calibrated von Frey filaments were used to determine the lowest mechanical (tactile) threshold required to evoke a brisk paw withdrawal reflex in the rat hindpaws. Rats were allowed to acclimatize in wire mesh cages for 15-20 min prior to von Frey testing. Assessment of paw withdrawal thresholds (PWTs) using von Frey filaments was undertaken prior to CCI-surgery (pre-surgery baseline on day 0). Before the drug dosing on day 14, the pre-dose baseline was recorded for each rat. […] Drug-naïve CCI-rats (n=4 - 6 per group) were used. The oral (PO) gavage vehicle was either 10% (w/v) Povidone K25 in water for PO dosing, or 18% (w/v) CrosPovidone in water for PO dosing, or 0.5% CMC-Na/0.1% Tween 80in distilled water for PO dosing. The positive control gabapentin was dissolved in the vehicle and orally given at 100 mg/kg (by oral gavage). Test article was dissolved or suspended in the vehicle and orally given at 25, 50, 100 and 150 mg/kg. Each CCI-rat was administered a single oral dose of test article, gabapentin or vehicle control, 2 hours before assessment of PWT.

[4] = system: SNL neuropathic pain (mechanical allodynia); test: Spinal nerve ligation (SNL) mono-neuropathic pain model in rat; type: in vivo; conditions: SNL rats, oral administration
Protocol: Spinal Nerve Ligation (SNL) Mono-Neuropathic Pain Model in Rat. The surgical procedure will be performed according to the method firstly described by Kim and Chung (Kim SH, Chung JM. Pain. 1992;50(3):355-63.). This procedure will result in tactile allodynia in the left hindpaw. […] The dose-reverse anti-allodynia effects of test compound: on day 14 after surgery, rats were treated with test article at one of four doses, vehicle or positive control by oral gavage, and PWT was determined by calibrated von Frey filaments at time points of 0 (right before the drug dosing, Pre-Dose Baseline), 0.5, 1, 2, 4 and 6 hr. The anti-allodynia effects of repeated administration of test article: Administration of test article was started on day 7 after surgery, once a day for 7 days. PWT was determined by calibrated von Frey filaments, 2 hour after test article dosing each day. After 7 days dosing, the measurement were continued, every other day without compound dosing for another 7 days. PWT was determined at the time points as given above.

[5] = Accelerated stability test (XRPD and Raman); type: physicochemical; conditions: 1 week
Protocol: X-ray Powder Diffraction (XRPD). Approximately 2 mg of sample was gently compressed on the XRPD zero back ground single obliquely cut silica sample holder. The sample was then loaded into a D/MAX 2200 X-ray powder diffractometer (Rigaku) or a Philips X-Pert MPD diffractometer and analyzed using the following experimental conditions (Tube anode: Cu; Generator tension: 40 kV; Tube current: 40 mA; Wavelength alphal: 1.54056 Å; Wavelength alpha2: 1.5444 Å; Start angle [2 theta]: 5; End angle [2 theta]: 50; and Continuous scan). For suspected novel forms a slightly slower scan speed was used over a range of 4-40°2θ.
Raman spectroscopy. Samples were analyzed by a Nicolet Almega XR Dispersive Raman Microscope for its Raman spectrum using the following conditions (Exposure Time: 1.0 s; Acquisition No: 10; Pinhole Size: 25, 50 or 100 μm; Wavelength range: 2000˜300 cm^−1 (single grating); Laser: He-Ne 780 nm 100% power; Objective: 20×/0.40 or 50×/0.75 (magnifier/numerical aperture number)). Then the measured Raman spectra were corrected by baseline subtraction using the software OMNIC™v7.3.

[6] = target: T1, TrkA (human full length) (Homo sapiens, UniProt P04629); test: PathHunter whole cell functional assay, NGF stimulated TrkA activation (U2OS); type: cell-based; conditions: U2OS PathHunter cells, mean of triplicate; read-out: cellular IC50, NGF stimulated TrkA activation
T1 construct: expressed recombinantly on the intracellular C-terminus of TrkA (human full length); host or cells: U2OS
Excerpt: Compound inhibition in a live, whole cell based functional assay: There are several methods to measure whole length TrkA activation stimulated by its natural ligand or agonist NGF in live cells. For example, the PathHunter Profiling services offered by DiscoveRx (Fremont, Calif.). The PathHunter technology is an adaptation of enzyme fragment complementation that provides a novel, generic functional cell-based assay format for detecting protein-protein interaction. In this cell-based assay approach, with U2OS cell background, a small peptide epitope (PK) is expressed recombinantly on the intracellular C-terminus of TrkA (human full length). This is co-expressed with a larger sequence, termed enzyme acceptor (EA) that is attached to a cytoplasmic protein SHC1 which will interact with TrkA intracellularly. NGF induced activation of TrkA receptor causes either homo- or hetero-dimerization of TrkA resulting in cross-phosphorylation. The SHC1-EA fusion protein then binds the phosphorylated TrkA receptor forcing complementation of the PK and EA fragment. This interaction generates an active beta-galactosidase enzyme, which is detected using a chemiluminescent substrate.

T1 sequence (P04629 33-796): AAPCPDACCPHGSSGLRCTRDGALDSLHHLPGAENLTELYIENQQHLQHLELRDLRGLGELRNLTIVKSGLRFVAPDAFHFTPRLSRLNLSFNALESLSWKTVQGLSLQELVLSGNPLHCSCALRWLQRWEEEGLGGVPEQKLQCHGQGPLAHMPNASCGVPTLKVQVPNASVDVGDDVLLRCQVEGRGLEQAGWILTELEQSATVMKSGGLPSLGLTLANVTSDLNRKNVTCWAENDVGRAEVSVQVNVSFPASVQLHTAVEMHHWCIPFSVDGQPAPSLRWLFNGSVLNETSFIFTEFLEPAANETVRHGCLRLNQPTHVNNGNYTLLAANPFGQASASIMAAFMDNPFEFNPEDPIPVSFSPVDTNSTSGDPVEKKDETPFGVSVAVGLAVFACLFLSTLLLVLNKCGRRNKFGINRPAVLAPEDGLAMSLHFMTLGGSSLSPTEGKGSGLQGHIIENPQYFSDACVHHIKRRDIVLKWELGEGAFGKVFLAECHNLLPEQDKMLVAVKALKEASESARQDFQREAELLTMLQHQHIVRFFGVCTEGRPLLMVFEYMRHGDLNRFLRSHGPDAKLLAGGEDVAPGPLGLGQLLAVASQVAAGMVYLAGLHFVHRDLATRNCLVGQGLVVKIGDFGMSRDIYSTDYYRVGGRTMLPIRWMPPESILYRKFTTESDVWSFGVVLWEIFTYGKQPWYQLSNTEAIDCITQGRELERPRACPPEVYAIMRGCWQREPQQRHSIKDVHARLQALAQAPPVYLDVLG

SMILES	bioavailability [1]	analgesic effect (FIG. 1) [2]	effect on mechanical allodynia (FIG. 2) ([3]; CCI rats, single oral dose 25, 50, 100 and 150 mg/kg, PWT 2 hours after dosing)	observed side effects in dosed CCI-rats [3]	effect on mechanical allodynia [4]	stability by XRPD and Raman ([5]; 40° C./75% RH)	stability by XRPD and Raman ([5]; 80° C.)	IC50 [6]
O=C([O-])c1ccc(Nc2cc(N3CCN(C4CCCCC4)CC3)c3noc4c3c2C(=O)c2ccccc2-4)cc1.[Na+] [Compound I, Sodium 4-((3-(4-cyclohexylpiperazin-1-yl)-6-oxo-6H-anthra[1,9-cd]isoxazol-5-yl)amino)benzoate]	~100%	efficacious in relieving the pain	significantly reduced mechanical allodynia	no such effect or other abnormality was observed	significantly reduced mechanical allodynia	no instability	no instability	–
NCC1(CC(=O)O)CCCCC1 [gabapentin, reference compound]	–	–	–	drowsiness or motor incoordination	–	–	–	–
O=C(O)c1ccc(Nc2cc(N3CCN(C4CCCCC4)CC3)c3noc4c3c2C(=O)c2ccccc2-4)cc1 [Compound C]	–	–	–	–	–	–	–	~50 nM
